Assay results published in patent US20150307841A1, “Composition for Promoting Differentiation and Proliferation of Neural Stem Cell and Neural Precursor Cell” (priority 2014, published 2015).

Experiments:
[1] = system: memory-deficient model rats; experiment: Passive avoidance test in memory-deficient model rats; assay type: in vivo, rat
Text: Ibotenic acid is a neurotoxin present in mushrooms and is known to cause powerful damage to neurons when directly injected into the brain of mice or rats. In particular, because senile plaques and neuronal cell death appear in the entorhinal cortex and hippocampus in early Alzheimer's disease patients (Ueki A et al. J Neurol Sci, 1994), memory-deficient model rats were generated by injecting ibotenic acid (IBO) into the entorhinal cortex. The surgical protocol followed Heo H et al.'s method (J Ethnopharmacol, 2009) with some modifications. In the model animals, the injection of ibotenic acid induces cell death not only in the entorhinal cortex but also in the CA and DG regions of the hippocampus and impairs hippocampus-related learning and memory abilities.
The 6-week-old rats were anesthetized with equithesin (350 mM pentobarbital sodium, 250 mM chloral hydrate, 85 mM MgSO4 and 40% propylene glycol in 10% ethanol, 2 mL/kg). […]
The passive avoidance was carried out as described in Heo H et al. (J Ethnopharmacol, 2009), with the same number of animals per group as the Y-maze test. […] Exactly 24 hours after the acquisition trial, the rats were placed in the lighted chamber again and the latency time to enter the dark chamber was measured for 720 seconds (retention trial). […]

[2] = system: hippocampal neural precursor cells (NPCs); experiment: NeuN, GFAP, TUJ1, MAP2 immunostaining of cultured embryonic neural precursor cells (differentiation, neurite outgrowth); assay type: cell-based, rat
Text: Pregnant Sprague-Dawley rats purchased from Orient Animal Breeding Center (a branch of Charles River Laboratories, Gyeonggi-do, Korea) were sacrificed by exposing to CO2 inhalation. Hippocampal neural precursor cells (NPCs) were isolated from the brain of the E16 rat embryo according to the method of Shin M H et al. (Exp Mol Med, 2002) with slight modifications.
Briefly, hippocampi were aseptically dissected from the embryonic forebrain, mechanically dissociated in Ca^2+/Mg^2+-free Hank's balanced salt solution (HBSS) and then plated at 7×10^5 cells/cm^2 on 60-mm dishes pre-coated with 15 μg/mL poly-L-ornithine and 1 μg/mL fibronectin. The neural precursor cells were cultured in serum-free N2 media supplemented with 10 ng/mL bFGF in 5% CO2 for 3 days and then detached using 0.05% trypsin-ethylenediaminetetraacetic acid (EDTA). The neural precursor cells were plated on 12-mm cover glasses (Bellco Co., Vineland, N.J., USA) and cultured one more day in N2 media supplemented with 10 ng/mL bFGF in 5% CO2 (primary culturing).
Following the primary culturing in (1), in order to confirm the differentiation of the neural precursor cells and the proliferation of the differentiated neurons, the neural precursor cells were cultured on 12-mm cover glasses (Bellco Co., Vineland, N.J., USA) for 4 days in bFGF-free N2 media with 2×10^4 cells/well. For double immunostaining of GFAP and NeuN, and TUJ1 and MAP2, the cells were cultured for only 2 days.
The immunostaining was carried out as previously described (Donaldson J G (2001) Immunofluorescence staining Curr Protoc Cell Biol Chapter 4: Unit 4.3) with minor modifications.
On the next day, after adding a vehicle (dimethyl sulfoxide) or soyasaponin I at different concentrations of 0.5, 1 or 2 μM to the media, the cells were fixed with 4% PFA in PBS at 4° C. for 4-15 minutes. The cells were permeabilized with 0.5% Triton X-100 for 5 minutes and blocked with 5% normal serum (a mixture of normal donkey, goat and horse sera) for 1 hour at room temperature.
The cells were incubated with anti-GFAP (1:1,000, Chemicon), anti-NeuN (1:500, Chemicon), anti-MAP2 (1:2,500, Sigma) and anti-TUJ1 (1:2,000, Sigma) primary antibodies for 1 hour at room temperature. The secondary antibodies and scanning method used were the same as in (2).
Cell counting was performed as reported by Park H J et al. (Phytother Res, 2008). The average length per neurite of the MAP2-positive cells with longer neurites more than double the cell body width was counted from 10-12 confocal laser microscopic fields that were randomly chosen per the cultured cover glass. Primary branches, which directly outgrow from the cell body, were counted when the length of the primary branches was 2 times or longer than the cell body width. All secondary and tertiary branches that come from the primary and secondary branches, respectively, were also counted. The numbers of the branches were also counted from 10-12 confocal laser microscopic fields that were randomly chosen per each cover glass on which the neuronal cells were grown and immunostained with MAP2 antibodies. Analysis of the neurite length and the numbers of the branches was performed with LSM Image Examiner ver. 2.80 (Carl Zeiss).

C[C@@H]1O[C@@H](O[C@H]2[C@H](O[C@H]3[C@H](O[C@H]4CC[C@@]5(C)[C@@H](CC[C@]6(C)[C@@H]5CC=C5[C@@H]7CC(C)(C)C[C@@H](O)[C@]7(C)CC[C@]56C)[C@@]4(C)CO)O[C@H](C(=O)O)[C@@H](O)[C@@H]3O)O[C@H](CO)[C@H](O)[C@@H]2O)[C@H](O)[C@H](O)[C@H]1O [soyasaponin I]
Passive avoidance latency time, relative to that of the normal group ([1]; 10 mg/kg oral, tests 2 weeks after administration (Experimental Example 2)): 89.65% | Passive avoidance latency time ([1]; Experimental Example 1, retention trial 24 hours after shock): improvement in latency time | Neurite length (MAP2) increase compared to the normal group ([2]; 1 μM soyasaponin I for 4 days): 2.2 fold | Number of NeuN-expressing cells (differentiation into mature neurons) ([2]; 0.5 and 1 μM, concentration-dependent): increased | Astrocytes expressing glial fibrillary acidic protein (GFAP) in the cultures ([2]; hippocampal neural precursor cell cultures): hardly observed | Increase in TUJ1-expressing cells compared to the normal group ([2]; soyasaponin I 0.5 μM group): about 4 fold | Average neurite length ([2]; soyasaponin I 1 μM group): markedly increased | Numbers of both primary and secondary branches ([2]; soyasaponin I 1 μM group): markedly increased
